Test system: DSS-induced colitis
Test: Chronic DSS-induced colitis in mice (body weight, DAI, colon length, histology)
Type: in vivo, C57BL/6 mice
Details: sulfasalazine (positive control) 300 mg/kg/day for seven days
Source text: 6-week-old male C57BL/6 mice weighing 18-20 g are purchased from the Laboratory Animal Services Center, the Chinese University of Hong Kong. The study protocols are approved by the committee for Care of Laboratory Animals in the School of Chinese Medicine at the Hong Kong Baptist University. The animals are divided into six groups (8-10 each group): control group (mice received drinking water and control diet), DSS-treated group (mice received 2.0% DSS in drinking and control diet), positive control group (mice received 2.0% DSS in drinking and ip, 300 mg/kg/day of sulfasalazine), Pd-Ib treatment groups will be given different dosed of Pd-Ib (mice received 2.0% DSS in drinking and i.p., 30, 60, or 120 mg/kg/day, respectively). As depicted in experiment design shown in FIG. 9, the mice are given tap water for 6 days, and then be divided into 6 groups. DSS is dissolved in distilled water at a concentration of 2% (w/v) and administered to the mice. The first day and the last day of DSS treatment are designated as day 7 and day 11, respectively. Mice are marked and checked daily for body weight. On day 12, body weight, stool consistency, and gross bleeding of each mouse are assessed, and animals showing body weight loss, diarrhea, and bleeding are selected for further analysis. All colitis mice are then interventions once daily for seven days, with eight mice in each group. The DSS model group is administered with tap water as negative control; while sulfasalazine is given as positive control (i.p., 300 mg/kg/day) and Pd-Ib treatment groups are given different doses of Pd-Ib (i.p., 30, 60, or 120 mg/kg/day, respectively). In parallel, a vehicle control group is also set up to receive drinking tap water without DSS throughout the entire experimental period. On day 19, after the mice are killed under anesthesia induced by pentobarbital sodium (i.p., 0.65 g/kg), the length of the large intestine is measured. All portions are stored at −80° C. for biochemical assays. The DAI is determined by scoring changes in the body weight, diarrhea, colon length, and bleeding. In brief, body weight, stool consistency, colon length and bleeding in the stool are monitored daily for determination of DAI. At the end of the experiment, mice are killed, and the colon is dissected from each mouse, and the length of which is measured from the ileocecal junction to the anal verge. The colons are opened longitudinally, gently washed with ice-cold PBS, fixed in 4% paraformaldehyde overnight, and embedded in paraffin. Five-micro-meter sections are stained with hematoxylin/eosin according to a standard procedure to evaluate colonic damage. Colitis is induced in all groups except the control group. Pd-Ib and sulfasalazine are administered to mice from day 6 to day 12. The change in body weight is taken as the difference between the body weight before induction of colitis and that immediately before sacrifice on day 13. The DAI score is determined by combining scores of (i) body weight loss, (ii) stool consistency, and (iii) stool bleeding. On day 13, the mice are sacrificed, and the colon lengths are measured. Data are expressed as mean±SEM, n=8 (^###p<0.001, compared with the control group; *p<0.05, **p<0.01, ***p<0.001, compared with DSS model group).

Compound: O=C(O)c1cc(/N=N/c2ccc(S(=O)(=O)Nc3ccccn3)cc2)ccc1O [sulfasalazine, Sulfasalazine, reference compound]
- histological manifestation of colon tissue sections: significantly decrease the damage of colon tissues
